Test results published in patent publication US6083977A, “Trienoic retinoid compounds and methods” (Ligand Pharmaceuticals Incorporated, priority 1995, dated 2000).
Values belong to the molecule of their own block, whether it stands above or below them.

What was measured:
[1] = tested on: RARs or RXRs; assay: Co-transfection assay, RAR and RXR receptors; type: cell-based; conditions: for potency profile compared to 9-cis retinoic acid (in words): relative to 9-cis
Experimental: (§1) Utilizing the "cis-trans" or "co-transfection" assay described by Evans et al., Science, 240:889-95 (May 13, 1988), the disclosure of which is herein incorporated by reference, the retinoid compounds of the present invention were tested and found to have strong, specific activity as either selective RAR agonists, selective RXR agonists, or as pan-agonist activators of both RAR and RXR receptors. This assay is described in further detail in U.S. Pat. Nos. 4,981,784 and 5,071,773, the disclosures of which are incorporated herein by reference.
(§2) The co-transfection assay provides a method for identifying functional agonists which mimic, or antagonists which inhibit, the effect of native hormones, and quantifying their activity for responsive IR proteins. In this regard, the co-transfection assay mimics an in vivo system in the laboratory. Importantly, activity in the co-transfection assay correlates very well with known in vivo activity, such that the co-transfection assay functions as a qualitative and quantitative predictor of a tested compounds in vivo pharmacology. See, e.g., T. Berger et al. 41 J. Steroid Biochem. Molec. Biol. 773 (1992), the disclosure of which is herein incorporated by reference.
(§3) In the co-transfection assay, a cloned cDNA for an IR (e.g., human RARα, RARβ, RXRγ) under the control of a constitutive promoter (e.g., the SV 40 promoter) is introduced by transfection (a procedure to induce cells to take up foreign genes) into a background cell substantially devoid of endogenous IRs. This introduced gene directs the recipient cells to make the IR protein of interest. A second gene is also introduced (co-transfected) into the same cells in conjunction with the IR gene. This second gene, comprising the cDNA for a reporter protein, such as firefly luciferase (LUC), is controlled by an appropriate hormone responsive promoter containing a hormone response element (HRE). This reporter plasmid functions as a reporter for the transcription-modulating activity of the target IR. Thus, the reporter acts as a surrogate for the products (mRNA then protein) normally expressed by a gene under control of the target receptor and its native hormone.
(§4) The co-transfection assay can detect small molecule agonists or antagonists of target IRs. Exposing the transfected cells to an agonist ligand compound increases reporter activity in the transfected cells. This activity can be conveniently measured, e.g., by increasing luciferase production, which reflects compound-dependent, IR-mediated increases in reporter transcription. […] . Increasing concentrations of a suspected antagonist will decrease the reporter signal (e.g., luciferase production). The co-transfection assay is therefore useful to detect both agonists and antagonists of specific IRs. Furthermore, it determines not only whether a compound interacts with a particular IR, but whether this interaction mimics (agonizes) or blocks (antagonizes) the effects of the native regulatory molecules on target gene expression, as well as the specificity and strength of this interaction.
To determine RAR and/or RXR agonist activity of the compounds of the present invention, the CV-1 cells were transiently transfected by calcium phosphate coprecipitation according to the procedure of Berger et al., 41 J. Steroid Biochem. Mol. Biol., 733 (1992) with the following receptor expressing plasmids: pRShRARα: Giguere et al., 330 Nature, 624 (1987); pRShRARβ and pRShRARγ, Ishikawa et al., 4 Mol. Endocrin., 837 (1990); pRShRXRα, Mangelsdorf et al., 345 Nature, 224 (1990); and pRSmRXRβ and pRSmRXRγ, Mangelsdorf et al., 6 Genes & Devel., 329 (1992), the disclosures of which are herein incorporated by reference.

[2] = tested on: ornithine decarboxylase (ODC); assay: Ornithine decarboxylase assay: inhibition of TPA induction of ODC; type: cell-based
[3] = tested on: RAR and RXR receptors; assay: Binding to the RAR and RXR receptors; conditions: relative to ATRA (RAR) and 9-cis (RXR)
[4] = tested on: RARs; assay: Co-transfection assay, RAR subfamily; type: cell-based, human
Experimental: as §1, §2, §3
as §4, with “interaction. […]” for “interaction.”

Structure (SMILES): COc1cc(C)c(/C=C/C=C/C=C(\C)C(=O)O)c(C)c1C [C, (2E,4E,6E)-2-methyl-7-(2,3,6-trimethyl-4-methoxyphenyl)hepta-2,4,6-trienoic acid]
activity on any of the RARs or RXRs (in words) [1]: no, or virtually no, activity

Structure (SMILES): CCOC(=O)/C=C(C)/C=C/C=C(\C)c1cc(C(C)(C)C)cc(C(C)(C)C)c1 [Compound 7, Ethyl (2E, 4E, 6E)-7-(315-di-t-butylphenyl)-3-methylocta-2,4,6-trienoate]
retinoid activity of ester analogs (in words) [2]: exhibit retinoid activity

Structure (SMILES): CCOC(=O)/C=C(C)/C=C/C=C(/C)c1cc(C(C)(C)C)cc(C(C)(C)C)c1 [Compound 8, Ethyl (2E, 4E, 6Z)-7-(3,5-di-t-butylphenyl)-3-methylocta-2,4,6-trienoate]
retinoid activity of ester analogs (in words) [2]: exhibit retinoid activity

Structure (SMILES): CC(/C=C/C=C1\CCOc2c1cc(C(C)(C)C)cc2C(C)(C)C)=C\C(=O)O [Compound 39, (2E,4E,6E)-6-(6,8,-Di-t-butylchroman-4-ylidene)-3-methylhexa-2,4,6-trienoic acid]
RAR activity (in words) [4]: extremely potent RAR active compounds

Structure (SMILES): CC(/C=C/C=C(\C)c1cc(C(F)(F)F)cc(C(F)(F)F)c1)=C\C(=O)O [Compound 41, (2E, 4E, 6E)-7-(3,5-Di-trifluoromethylphenyl)-3-methylocta-2,4,6-trienoic acid]
RAR activity (in words) [4]: extremely potent RAR active compounds

Structure (SMILES): COc1c(C(C)(C)C)cc(/C(C)=C/C=C/C(C)=C/C(=O)O)cc1C(C)(C)C [Compound 47, (2E, 4E, 6E) -3-Methyl-7-(3,5-di-t-butyl-4-methoxyphenyl)octa-2,4,6-trienoic acid]
RAR activity (in words) [4]: extremely potent RAR active compounds
RAR isoform selectivity (in words) [4]: selectivity on RARβ and RARγ

Structure (SMILES): COC(/C=C/C=C(\C)c1ccc(C(C)(C)C)cc1)=C/C(=O)O [D, (2E,4E,6E)-3-methoxy-7-(4-t-butylphenyl)octa-2,4,6-trienoic acid]
activity on any of the RARs or RXRs (in words) [1]: no, or virtually no, activity

Results, then the molecule that gave them:

activity on any of the RARs or RXRs (in words) [1]: no, or virtually no, activity
Structure (SMILES): COc1ccc(/C(C)=C/C=C/C(C)=C/C(=O)O)cc1OC [A, (2E,4E,6E)-3-methyl-7-(3,4-dimethoxyphenyl)octa-2,4,6-trienoic acid]

activity on any of the RARs or RXRs (in words) [1]: no, or virtually no, activity
Structure (SMILES): COc1ccc(/C(C)=C/C=C/C(C)=C/C(=O)O)cc1 [B, (2E, 4E,6E)-3-methyl-7-(4-methoxyphenyl)octa-2,4,6-trienoic acid]

binding compared to ATRA and 9-cis (in words) [3]: equal or superior binding
potency profile compared to 9-cis retinoic acid (in words) [1]: superior potency profile
Structure (SMILES): C/C(=C/C=C/C(C)=C/C(=O)O)c1cc(C(C)(C)C)cc(C(C)(C)C)c1 [Compound 10, (2E, 4E, 6Z)-7-(3,5-Di-t-butylphenyl)-3-methylocta-2,4,6-trienoic acid]

potency profile compared to 9-cis retinoic acid (in words) [1]: superior potency profile
Structure (SMILES): C/C(=C/C=C/C(C)=C/C(=O)O)c1cc(C(C)C)cc(C(C)C)c1 [Compound 43, (2E, 4E, 6Z)-7-(3,5-Di-isopropylphenyl)-3-methylocta-2,4,6-trienoic acid]
